Source: patent US20230339835A1, “2,3,5-TRIMETHYL-6-NONYLCYCLOHEXA-2,5-DIENE-1,4-DIONE FOR SUPPRESSING AND TREATING ALPHA-SYNUCLEINOPATHIES, TAUOPATHIES, AND OTHER DISORDERS” (PTC THERAPEUTICS, INC., priority 2018, published 2023)

Assays:
[1] = biological target: T1, pre-formed fibrils (PFFs) of human wild-type Tau K18 fragment (Homo sapiens, UniProt P10636); assay: Cell-free Tau K18 WT pre-formed fibril disaggregation assay (Thioflavin T); format: biochemical; details: 10 μM Tau PFFs, 30 μM compound, 94 hr, vs vehicle (Dunnett's test)
T1 construct: human recombinant Tau K18 WT fragment were generated by incubating the Tau K18 monomer (Bio-Techne®); purchased Bio-Techne
Method: Summary: Compounds 2,3,5-trimethyl-6-nonylcyclohexa-2,5-diene-1,4-dione (C9), 2,3,5-trimethyl-6-octylcyclohexa-2,5-diene-1,4-dione (C8), and 2,3,5-trimethyl-6-heptylcyclohexa-2,5-diene-1,4-dione (C7) were tested for their ability to disaggregate pre-formed fibrils (PFFs) of human wild-type Tau K18 fragment, as measured by the decrease in fluorescence intensity of the aggregate-binding fluorophore, Thioflavin T, over time.
Experimental Methods: Pre-formed fibrils (PFFs) of the human recombinant Tau K18 WT fragment were generated by incubating the Tau K18 monomer (Bio-Techne®) with sodium heparin in a 1:1 ratio in presence of excess (50×) tris(2-carboxyethyl)phosphine (TCEP) as the reducing agent in Dulbecco's phosphate-buffered saline (DPBS) buffer (pH 7.4). The mixture was incubated for 4 days at 37° C. without agitation to yield PFFs in 100 μM final concentration.
Cell-free Tau disaggregation assays were set up with 10 μM of Tau PFFs in the presence of 30 μM of compound (from 10 mM stocks in DMSO) or in 0.3% (v/v) DMSO as vehicle. All solutions were prepared in DPBS buffer (pH 7.4) with 0.03% (v/v) NaN3 and 5 μM Thioflavin T (ThT), prepared as a master mix before addition of the protein or compounds. A protein master mix was first prepared the day before the assay to pre-equilibrate the Tau PFFs at 10 μM at ambient temperature and atmosphere. The next day, the pre-mixed protein solution was separated into 4 tubes (1 per condition). […]
Tau PFFs solution+/−compound and background samples were then loaded into wells of an optically transparent 96-well plate with black walls, which was sealed with a LightCycler® 480 seal (Roche Life Science), incubated at 37° C. for 15 minutes to equilibrate and the data collection was initiated. A Tecan M1000 spectrometer was used to collect data points on ThT fluorescence (ex/em 450/490 nm) every 30 minutes without agitation.
Data Analysis and Results: The maximum fluorescence intensity unit (FIU) value of the vehicle-treated Tau samples was set to 100%, to which all other FIU values were normalized relatively. […]

[2] = tested on: PD patient fibroblasts (ND29542); assay: Rescue of PD patient fibroblasts from BSO plus iron-induced oxidative stress; format: cell-based, human; details: BSO (125 μM) plus iron (125 μM); for Max Rescue (@ 500 nM): 500 nM compound, unit assumed; for EC50: Homo sapiens, Fibroblast, concentration at which 50% maximal rescue of cell viability was observed
Method: An initial screen was performed to identify the effectiveness of compounds for the amelioration of PD and AD. Test samples and solvent controls were tested for their ability to rescue PD and AD fibroblasts stressed by addition of L-buthionine-(S,R)-sulfoximine (BSO, a specific inhibitor of GSH synthetase) plus iron (e.g. iron citrate), in a similar manner as that described in Jauslin et al., Hum. Mol. Genet. 11(24):3055 (2002), Jauslin et al., FASEB J. 17:1972-4 (2003), and International Patent Application WO 2004/003565. This specific BSO-mediated cell death was prevented or ameliorated by administration of compounds described herein.
The AD experiments were performed as follows. PD experiments were performed in a similar manner; certain specific conditions are noted below in Table 1A.
MEM (a medium enriched in amino acids and vitamins) and Medium 199 (M199) with Earle's Balanced Salts (EBS), without phenol red, were purchased from Invitrogen. Fetal Calf Serum was obtained from Corning. Basic fibroblast growth factor (bFGF) and epidermal growth factor (EGF) were purchased from PeproTech. Penicillin-streptomycin-glutamine mix, L-buthionine (S,R)-sulfoximine, iron citrate, and insulin from bovine pancreas were purchased from Sigma. Calcein AM was purchased from Anaspec. Cell Culture Medium was prepared by combining 450 mL MEM, 50 mL Fetal Calf Serum, 100 U/mL penicillin, and 100 microgram/mL streptomycin. Assay medium was prepared by combining 125 mL M199, 50 mL Fetal Calf Serum, 100 U/mL penicillin, 100 microgram/mL streptomycin, 2 mM glutamine, 10 microgram/mL insulin, 10 ng/mL EGF, and 10 ng/mL bFGF; MEM was added to make the volume up to 500 mL. 10 mM BSO and 10 mM iron citrate solutions were prepared in water with subsequent filter-sterilization and stored at −20° C.
The test samples were supplied in 1.5 mL glass vials or polypropylene vials. The compounds were diluted with DMSO, to result in a 1 mM stock solution. Once dissolved, they were stored at −20° C.
A culture of AD or PD patient-derived fibroblasts was started from a vial with approximately 500,000 cells stored in liquid nitrogen. Cells were propagated in Cell Culture Medium, with subcultivation every third day by trypsinization at a ratio of 1:3. Once confluent, fibroblasts were harvested by trypsinization, resuspended in Assay Medium, and seeded at a final cell density of 2,500 cells/0.1 mL per well of a standard 96-well tissue culture plate. […]
100 microliters of Calcein AM (1 microM) in PBS+Ca+Mg was then added to each well. […] After that time fluorescence (excitation/emission wavelengths of 485 nm and 525 nm, respectively) was read on a Spectramax fluorescence reader. Data were analyzed using standard four-parameter curve fit algorithms (XLFit or Prism) to determine the EC50 concentration for each compound.

T1 sequence (P10636 561-685 limits assumed): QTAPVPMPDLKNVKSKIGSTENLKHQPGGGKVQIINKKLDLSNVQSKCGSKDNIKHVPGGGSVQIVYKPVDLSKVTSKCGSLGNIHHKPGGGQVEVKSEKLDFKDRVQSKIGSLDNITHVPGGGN

SMILES | reduction in Tau fibril content [1] | Max Rescue (@ 500 nM) [2] [%] | EC50 [2] [nM]
CCCCCCCCC1=C(C)C(=O)C(C)=C(C)C1=O [Compound C8, 2,3,5-trimethyl-6-octylcyclohexa-2,5-diene-1,4-dione, reference compound] | did not have a significant reduction | 73 | > 500
CCCCCCCCCC1=C(C)C(=O)C(C)=C(C)C1=O [Compound C9, 2,3,5-trimethyl-6-nonylcyclohexa-2,5-diene-1,4-dione] | significant reduction | 103 | 84
